One data set concerns A. baumannii biofilm. The data set can be described thus: microbe, parasite or virus in culture. The format is cell-based. The following applies: Acinetobacter baumannii; 10 μg/mL, positive control; read-out: biofilm formation inhibition. The protocol: In order to investigate an effect of octopromycin on the biofilm of A. baumannii, analysis for biofilm formation inhibition and eradication was performed.
To examine the inhibitory effect of an octopromycin peptide on biofilm formation, A. baumannii was cultured in TSB. The bacteria were diluted to 5×10^5 CFU/mL in a TSB medium, then 97.5 mL and 90 mL of bacterial suspensions were mixed with 2.5 mL and 10 mL of peptides, respectively, to reach 50 μg/mL (MIC) and 200 μg/mL (MBC), and cultured on a 96-well plate for 24 hours. Then, the supernatant was carefully removed, and the formed biofilm was fixed with 100% methanol for 10 minutes. After methanol was removed, the biofilm was stained with 0.1% crystal violet for 30 minutes. Subsequently, the plate was washed 3 times with distilled water. Finally, the biofilm was completely dissolved in 95% ethanol and absorbance was measured at 495 nm using a microplate reader (Bio-Rad, USA).

Data set [1] relates to A. baumannii. The data set can be described thus: Propidium iodide (PI) uptake / FDA staining membrane permeability assay (CLSM). The data set is classed as cell-based, Acinetobacter baumannii. The following applies: 10 μg/mL, positive control. The protocol:
Propidium iodide (PI) uptake assay was performed to evaluate an effect of octopromycin on association with the membrane permeability and apoptosis of A. baumannii. The PI was a red fluorescent nuclear and chromosome counter dye that indicated changes in cell membrane permeability, and was used to detect the presence of dead cells and simultaneously observe live cells by observing green fluorescence (FDA). A. baumannii treated with octopromycin at MIC; 50 μg/mL and MBC; 200 μg/mL levels and control cell suspensions were centrifuged (5000 rpm for 2 minutes), washed with PBS and the pellets were suspended in PBS. Subsequently, the cells were cultured with 20 μg/mL of PI (Sigma Aldrich, USA) and 8 μg/mL of FDA (Sigma Aldrich, USA) at 25° C. for 30 minutes in the dark, and finally, the remaining dye was washed with PBS. Finally, a 5 μL drop of each suspension was placed on a cover slip and fluorescence images were observed using a CLSM integrated with a scan head on an Axiovert 200M inverted microscope (Carl Zeiss, Germany).

For data set [2], the system named is A. baumannii. The data set can be described thus: Time-kill kinetics (OD 595 nm). The following applies: 10 μg/mL. The data set is classed as cell-based, Acinetobacter baumannii. The protocol: The MIC and MBC levels of octopromycin in A. baumannii were determined using media dilution tests and subcultures, respectively, according to the guidelines of the Clinical and Laboratory Standards Institute (CLSI, 2008 M27-A3). Several concentrations of octopromycin (0, 5, 10, 25, 50, 100, and 200 μg/mL) were tested as standard antibiotics (positive control) together with chloramphenicol (10 μg/mL, Sigma-Aldrich, USA) acting on A. baumannii growth and the MBC of chloramphenicol was confirmed according to the same procedure. The MIC was determined as the minimum concentration required to inhibit visual growth of A. baumannii. […] For analysis of time-kill kinetics, A. baumannii was cultured with octopromycin at various concentrations (0, 25, 50, 100, and 200 μg/mL) in the TSA medium at 25° C., and at different time intervals (0, 3, 6, 9, 12, 18, and 21 h), the absorbance was measured at 595 nm using a microplate reader (Bio-Rad, Saint Louis, USA) to confirm an inhibitory effect after culturing.

The next data set deals with mouse red blood cells. The data set is classed as cell-based. The protocol: Systemic application of octopromycin as an antibiotic requires low toxicity to red blood cells. Accordingly, an in vitro hemolysis assay was performed using mouse red blood cells […].
The hemolytic activity of the peptide was evaluated using mouse red blood cells (RBC). The RBCs were washed 3 times with phosphate buffered saline (PBS) until the supernatant was clear. Different concentrations of octopromycin (0, 25, 50, 100, 200, 300 μg/mL) were added to 1.5 ml Eppendorf tubes. The RBCs were added at a final concentration of 8% (v/v) in a total volume of 500 μL. The RBCs were incubated for 1 hour, and then centrifuged for 10 minutes and the absorbance of the supernatant was measured at 414 nm.
Percent hemolysis was calculated using Equation:
Hemolysis (%)=(A414 of Peptide−A414 of PBS)/(A414 of Triton−A414 of PBS)×100

In general, inhibition refers to the share of the control response that was lost under treatment. On to `O=C(N[C@H](CO)[C@H](O)c1ccc([N+](=O)[O-])cc1)C(Cl)Cl` [chloramphenicol, reference compound], for which, in the data set on A. baumannii biofilm, the inhibition at 10 µg/mL is 85.9%. Also, in the data set on A. baumannii [1], the “membrane permeability (PI/FDA staining)” value is reported as “high membrane permeability”. In the data set with A. baumannii [2], the “growth inhibition (time-kill kinetics)” value is “growth inhibition was similar to that of 50 μg/mL of octopromycin”.
In the data set on mouse red blood cells, Triton X-100 returned a hemolysis of 100%.

(Values after patent US20230321187A1, “OCTOPUS-DERIVED PEPTIDE OCTOPROMYCIN HAVING ANTIBACTERIAL AND ANTI-BIOFILM ACTIVITY AGAINST ACINETOBACTER BAUMANNII” (priority 2020, published 2023).)
